# Assay results from ChEMBL document CHEMBL3039007, “Structure-based identification of OATP1B1/3 inhibitors” (Mol Pharmacol, 2013).
# Experiments:
# [1] = biological target: T1, Solute carrier organic anion transporter family member 1B1 (Homo sapiens, UniProt Q9Y6L6); details: chinese hamster, cho, 10 µM
# T1 sequence (Q9Y6L6 whole entry): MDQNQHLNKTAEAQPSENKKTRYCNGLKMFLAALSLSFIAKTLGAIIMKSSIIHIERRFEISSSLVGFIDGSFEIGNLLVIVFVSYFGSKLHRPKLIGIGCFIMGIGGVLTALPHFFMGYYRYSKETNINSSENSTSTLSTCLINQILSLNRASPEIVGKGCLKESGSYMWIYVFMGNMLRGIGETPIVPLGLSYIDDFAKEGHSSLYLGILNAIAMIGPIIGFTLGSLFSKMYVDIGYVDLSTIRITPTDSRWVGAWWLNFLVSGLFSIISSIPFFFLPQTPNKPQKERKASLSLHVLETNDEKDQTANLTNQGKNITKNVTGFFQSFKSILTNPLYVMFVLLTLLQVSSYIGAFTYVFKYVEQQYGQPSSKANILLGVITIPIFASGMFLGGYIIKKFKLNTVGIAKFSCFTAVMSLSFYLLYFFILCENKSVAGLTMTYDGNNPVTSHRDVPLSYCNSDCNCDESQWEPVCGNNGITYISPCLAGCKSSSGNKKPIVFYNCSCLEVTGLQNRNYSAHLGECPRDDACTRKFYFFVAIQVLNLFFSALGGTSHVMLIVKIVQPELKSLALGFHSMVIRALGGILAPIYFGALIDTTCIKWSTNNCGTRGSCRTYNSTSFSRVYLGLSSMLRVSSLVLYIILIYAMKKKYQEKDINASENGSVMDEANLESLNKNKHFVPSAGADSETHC
# [2] = biological target: T2, Solute carrier organic anion transporter family member 1B3 (Homo sapiens, UniProt Q9NPD5); details: chinese hamster, cho, 10 µM
# T2 sequence (Q9NPD5 whole entry): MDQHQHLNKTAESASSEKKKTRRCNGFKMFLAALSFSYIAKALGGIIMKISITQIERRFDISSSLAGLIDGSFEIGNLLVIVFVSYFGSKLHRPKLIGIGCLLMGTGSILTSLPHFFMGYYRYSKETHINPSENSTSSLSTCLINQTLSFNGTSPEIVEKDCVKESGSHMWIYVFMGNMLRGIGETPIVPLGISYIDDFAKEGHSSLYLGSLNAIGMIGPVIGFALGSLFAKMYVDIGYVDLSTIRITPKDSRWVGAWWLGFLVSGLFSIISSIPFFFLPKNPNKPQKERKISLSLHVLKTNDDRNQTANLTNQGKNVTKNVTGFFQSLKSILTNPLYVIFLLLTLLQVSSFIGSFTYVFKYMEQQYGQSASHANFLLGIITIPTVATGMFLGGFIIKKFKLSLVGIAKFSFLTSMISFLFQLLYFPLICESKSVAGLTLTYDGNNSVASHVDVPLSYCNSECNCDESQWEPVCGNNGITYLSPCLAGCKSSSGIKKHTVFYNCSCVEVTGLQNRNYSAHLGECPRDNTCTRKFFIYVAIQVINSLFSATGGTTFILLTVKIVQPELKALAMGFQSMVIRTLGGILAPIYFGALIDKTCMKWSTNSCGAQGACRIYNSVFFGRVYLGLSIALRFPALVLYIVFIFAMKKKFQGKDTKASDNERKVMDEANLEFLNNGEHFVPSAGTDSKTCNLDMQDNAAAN
SMILES,residual activity [1] [%],residual activity [2] [%]
CC1(C)CC2C1CCC1(C)OC1CCC2(C)O (stereo not drawn) [2-HYDROXY-5 (6)EPOXY-TETRAHYDROCARYOPHYLLENE],70.41,86.53
CC(C)=CCc1c(O)cc(C)oc1=O [2-ISOPRENYL-3-HYDROXY-5-METHYL-a-PYRONE],101.1,115.1
COc1cccc(/C=C/C(=O)O)c1C(C)C [2-ISOPROPYL-3-METHOXYCINNAMIC ACID],137.6,87.92
Sc1nc2ccccc2s1 [2-MERCAPTOBENZOTHIAZOLE],158.6,97.95
COC1(C)CCC2OC2(C)CCC2C1CC2(C)C (stereo not drawn) [2-METHOXY-5 (6)EPOXY-TETRAHYDROCARYOPHYLLENE],92.29,93.07
COc1c(O)cccc1O [2-METHOXYRESORCINOL],95.14,98.72
Cc1[nH]c2ccccc2c1CN(C)C [2-METHYL GRAMINE],39.17,80.09
Cc1occc(=O)c1/C=C/O [2-METHYL-3-HYDROXYETHYLENEPYRAN-4-ONE],96.24,107
"COc1cc(OC)c2c(=O)c(-c3ccccc3)c(C)oc2c1OC [2-METHYL-5,7,8-TRIMETHOXYISOFLAVONE]",115.1,98.52
"C=C1CCC(C2CC(=O)OC2=O)C(=O)CCC2C1CC2(C)C (stereo not drawn) [2-METHYLENE-5-(2,5-DIOXOTETRAHYDROFURAN-3-YL)-6-OXO--10,10-DIMETHYLBICYCLO[7: 2: 0]UNDECANE]",29.82,47.58
CCCc1occc(=O)c1/C=C/O [2-PROPYL-3-HYDROXYETHYLENEPYRAN-4-ONE],128.5,129.3
"COc1ccc(-c2cc(=O)c3ccccc3o2)cc1OC [3',4'-DIMETHOXYFLAVONE]",187.6,129.7
"CC1(O)CC2C(CC1O)C2(C)C (stereo not drawn) [3,4-DIHYDROXYCARANE]",101,98.2
"C=C[C@@H](C1=CC(=O)C(OC)=C(OC)C1=O)c1ccccc1 [3,4-DIMETHOXYDALBERGIONE]",215.8,114.1
"O=[N+]([O-])c1cc(O)c(O)c([N+](=O)[O-])c1 [3,5-DINITROCATECHOL (OR-486)]",38.63,75.38
"COc1c(Cl)ccc(Cl)c1C(=O)O [3,6 DICHLOROMETHOXYBENZOIC ACID]",88.8,155.5
"COc1ccc2oc(-c3ccccc3)c(OC)c(=O)c2c1 [3,6-DIMETHOXYFLAVONE]",99.01,76.93
"O=c1c(O)c(-c2ccccc2)oc2cc(O)ccc12 [3,7-DIHYDROXYFLAVONE]",151.5,120.8
"COc1ccc2c(=O)c(OC)c(-c3ccccc3)oc2c1 [3,7-DIMETHOXYFLAVONE]",59.28,144.6
"CC1(C)CC2C1CCC1(C)OC2(C)CCC1O (stereo not drawn) [3,7-EPOXYCARYOPHYLLAN-6-OL]",57.88,80.05
"CC12CCC3C(CC3(C)C)C(C)(CCC1=O)O2 (stereo not drawn) [3,7-EPOXYCARYOPHYLLAN-6-ONE]",72.4,93.4
"COC(=O)C[C@H]1C(C)(C)[C@H](O)[C@@H]2CC3=C4CC(O)O[C@@H](c5ccoc5)[C@@]4(C)CCC3[C@]1(C)C2=O (stereo partly drawn) [3,16-DIDEOXYMEXICANOLIDE-3alpha-DIOL]",67.63,96.33
"COC(=O)C[C@H]1C(C)(C)[C@@H](O)[C@@H]2CC3=C4CC(O)O[C@@H](c5ccoc5)[C@]4(C)CCC3[C@@]1(C)C2=O (stereo partly drawn) [3,16-DIDEOXYMEXICANOLIDE-3beta-DIOL]",51.44,53.76
C=C1C(N)CC2CC1C2(C)C (stereo not drawn) [3-AMINO-beta-PINENE],92.27,104.4
NC(=O)c1cccc(N)c1 [3-AMINOBENZAMIDE],106.1,110.7
Cc1ccc2cc3c(ccc4ccccc43)c3c2c1CC3 [3-METHYLCHOLANTHRENE],86.73,78.58
Cn1c(=O)[nH]c(=O)c2[nH]cnc21 [3-METHYLXANTHINE],101.5,95.53
"CC(=O)O[C@H]1CC[C@]2(C)C(C[C@H](OC(C)=O)[C@]3(C)C4=CC(=O)OC(c5ccoc5)[C@@]4(C)CCC23)C1(C)C (stereo partly drawn) [3beta,7beta-DIACETOXYDEOXODEACETOXYDEOXYDIHYDROGEDUNIN]",51.92,67.84
CC(=O)O[C@H]1CC[C@]2(C)C3=CC(=O)[C@@]4(C)C(C[C@@H]5OC6(OCC(C)CC6Br)[C@@H](C)[C@@H]54)C3CC[C@H]2C1 (stereo partly drawn) [3beta-ACETOXY-23-BROMO-ISOALLOSPIROST-9 (11)-ENE-12-ONE],102.6,96.22
COc1cc([C@@H]2c3cc4c(cc3[C@@H](O)[C@H]3COC(=O)[C@H]23)OCO4)cc(OC)c1O [4'-DEMETHYLEPIPODOPHYLLOTOXIN],42.52,69.62

# Now from value to compound:
residual activity [1] [%],residual activity [2] [%],SMILES
94.07,88.69,CC(=O)O[C@H]1C[C@@H](O)C(C)(C)[C@@H]2C[C@@H](OC(C)=O)[C@]3(C)[C@H](CC[C@@]4(C)[C@@H](c5ccoc5)OC(=O)[C@H]5O[C@@]534)[C@@]12C [3-DEACETYLKHIVORIN]
27.18,106.5,COC(=O)C[C@H]1C(C)(C)[C@@H](O)[C@@H]2CC3=C4C=C(OC)O[C@@H](c5ccoc5)[C@]4(C)CCC3[C@@]1(C)C2=O (stereo partly drawn) [3-DEOXO-3beta-HYDROXYMEXICANOLIDE 16-ENOL ETHER]
50.95,59.13,C=C1[C@H]2CC[C@@]3(C)[C@H](c4ccoc4)OC(=O)C[C@]13O[C@H]1C[C@H](O)C(C)(C)[C@H](CC(=O)OC)[C@]12C [3-DEOXY-3beta-HYDROXYANGOLENSIC ACID METHYL ESTER]
100.6,104.1,COc1ccc2c(c1)OC[C@@H](Cc1ccc(OC)c(OC)c1)[C@@H]2O [3-DESHYDROXYSAPPANOL TRIMETHYL ETHER]
119.6,106.3,"COc1ccc(-c2oc3ccccc3c(=O)c2O)cc1OC [3-HYDROXY-3',4'-DIMETHOXYFLAVONE]"
126.8,116.7,O=c1oc2ccccc2cc1O [3-HYDROXYCOUMARIN]
98.75,107.5,COc1cccc(O)c1O [3-METHOXYCATECHOL]
116.2,114.8,Cc1cc(O)c(C)c(O)c1C(=O)O [3-METHYLORSELLINIC ACID]
100.8,112.2,CC1(C)CC23C(=O)CCC(O)C2(C)CCC13 (stereo not drawn) [3-NOR-3-OXOPANASINSAN-6-OL]
105.6,96.4,C[C@@H]1CC[C@@]23CCC4(C)[C@@](C=CC5[C@@]6(C)CCC(=O)C(C)(C)C6CC[C@]54C)(OC2=O)C3[C@H]1C (stereo partly drawn) [3-OXOURSAN (28-13)OLIDE]
95.73,123,CC1/C(=N/O)C[C@@H]2C[C@H]1C2(C)C (stereo partly drawn) [3-PINANONE OXIME]
93.69,99.32,CC(=O)c1ccc(O)c(CC=C(C)C)c1 [3-PRENYL-4-HYDROXYACETOPHENONE]
77.88,100.9,"C[C@]12CC[C@@H](O)C[C@H]1CCc1ccccc12 [3alpha-HYDROXY-4,4-BISNOR-8,11,13-PODOCARPATRIENE]"
132.2,130.5,O=C(/C=C/c1ccccc1)c1ccc(O)cc1 [4'-HYDROXYCHALCONE]
